Measurements as given in PubChem BioAssay (NCI).
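96-well plates; 48 h exposure; 5 concentrations. Endpoints by linear interpolation between flanking doses. Not reached: highest tested concentration assigned. At the GI50, growth is halved. TGI: concentration producing complete growth inhibition.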

Legend:
Assay in all cases: NCI-60 cell line screen, 48 h
HCT-116 colon = tested on: HCT-116 colon
CAKI-1 renal = tested on: CAKI-1 renal
CCRF-CEM leukemia = tested on: CCRF-CEM leukemia
SNB-19 CNS = tested on: SNB-19 CNS
RPMI-8226 leukemia = tested on: RPMI-8226 leukemia
BT-549 breast = tested on: BT-549 breast
OVCAR-3 ovarian = tested on: OVCAR-3 ovarian
MDA-MB-231 breast = tested on: MDA-MB-231 breast
HT29 colon = tested on: HT29 colon
COLO 205 colon = tested on: COLO 205 colon
SNB-75 CNS = tested on: SNB-75 CNS
UACC-257 melanoma = tested on: UACC-257 melanoma
T-47D breast = tested on: T-47D breast
OVCAR-8 ovarian = tested on: OVCAR-8 ovarian
ACHN renal = tested on: ACHN renal
MOLT-4 leukemia = tested on: MOLT-4 leukemia
NCI-H23 lung = tested on: NCI-H23 lung
HS 578T breast = tested on: HS 578T breast
MDA-MB-435 = tested on: MDA-MB-435
SF-539 CNS = tested on: SF-539 CNS
NCI-H460 lung = tested on: NCI-H460 lung
SN12C renal = tested on: SN12C renal
NCI-H226 lung = tested on: NCI-H226 lung
SK-MEL-5 melanoma = tested on: SK-MEL-5 melanoma
HCC-2998 colon = tested on: HCC-2998 colon
K-562 leukemia = tested on: K-562 leukemia
SW-620 colon = tested on: SW-620 colon
SF-295 CNS = tested on: SF-295 CNS
MCF7 breast = tested on: MCF7 breast
SK-MEL-28 melanoma = tested on: SK-MEL-28 melanoma
A498 renal = tested on: A498 renal
MALME-3M melanoma = tested on: MALME-3M melanoma
HOP-62 NSCLC = tested on: HOP-62 NSCLC
NCI-H522 lung = tested on: NCI-H522 lung
UACC-62 melanoma = tested on: UACC-62 melanoma
DU-145 prostate = tested on: DU-145 prostate
NCI/ADR-RES ovarian = tested on: NCI/ADR-RES ovarian
U251 CNS = tested on: U251 CNS
M14 melanoma = tested on: M14 melanoma
IGROV1 ovarian = tested on: IGROV1 ovarian
HCT-15 colon = tested on: HCT-15 colon
786-0 renal = tested on: 786-0 renal
SR leukemia = tested on: SR leukemia
SF-268 CNS = tested on: SF-268 CNS
UO-31 renal = tested on: UO-31 renal
TK-10 renal = tested on: TK-10 renal
SK-OV-3 ovarian = tested on: SK-OV-3 ovarian
A549 NSCLC = tested on: A549 NSCLC
PC-3 prostate = tested on: PC-3 prostate
KM12 colon = tested on: KM12 colon
SK-MEL-2 melanoma = tested on: SK-MEL-2 melanoma
HOP-92 NSCLC = tested on: HOP-92 NSCLC
OVCAR-5 ovarian = tested on: OVCAR-5 ovarian
EKVX NSCLC = tested on: EKVX NSCLC

C=C(CN1CCc2ccccc2C1)c1ccc(CCC(=O)Nc2ccccc2N)cc1
GI50 (HCT-116 colon): 16.2 µM
TGI (HCT-116 colon): 32.4 µM
GI50 (CAKI-1 renal): 20.9 µM
TGI (CAKI-1 renal): 77.1 µM
GI50 (CCRF-CEM leukemia): 4.66 µM
TGI (CCRF-CEM leukemia): > 100 µM
GI50 (SNB-19 CNS): 64.3 µM
TGI (SNB-19 CNS): > 100 µM
GI50 (RPMI-8226 leukemia): 14.8 µM
TGI (RPMI-8226 leukemia): > 100 µM
GI50 (BT-549 breast): 16.4 µM
TGI (BT-549 breast): 55.1 µM
GI50 (OVCAR-3 ovarian): 19.3 µM
TGI (OVCAR-3 ovarian): 63.5 µM
GI50 (MDA-MB-231 breast): 18.6 µM
TGI (MDA-MB-231 breast): 44.1 µM
GI50 (HT29 colon): 31 µM
TGI (HT29 colon): > 100 µM
GI50 (COLO 205 colon): 23.6 µM
TGI (COLO 205 colon): 48 µM
GI50 (SNB-75 CNS): 25.3 µM
TGI (SNB-75 CNS): 64.4 µM
GI50 (UACC-257 melanoma): 22.6 µM
TGI (UACC-257 melanoma): 46.4 µM
GI50 (T-47D breast): 34.3 µM
TGI (T-47D breast): > 100 µM
GI50 (OVCAR-8 ovarian): 26.2 µM
TGI (OVCAR-8 ovarian): 59.5 µM
GI50 (ACHN renal): 34.1 µM
TGI (ACHN renal): > 100 µM
GI50 (MOLT-4 leukemia): 4.65 µM
TGI (MOLT-4 leukemia): 26 µM
GI50 (NCI-H23 lung): 28.6 µM
TGI (NCI-H23 lung): 85.2 µM
GI50 (HS 578T breast): 44 µM
TGI (HS 578T breast): > 100 µM
GI50 (MDA-MB-435): 22.5 µM
TGI (MDA-MB-435): 49.9 µM
GI50 (SF-539 CNS): 19.4 µM
TGI (SF-539 CNS): 37 µM
GI50 (NCI-H460 lung): 16.8 µM
TGI (NCI-H460 lung): 38.6 µM
GI50 (SN12C renal): 17.3 µM
TGI (SN12C renal): 51 µM
GI50 (NCI-H226 lung): 27.1 µM
TGI (NCI-H226 lung): 71.2 µM
GI50 (SK-MEL-5 melanoma): 18 µM
TGI (SK-MEL-5 melanoma): 33.2 µM
GI50 (HCC-2998 colon): 17.1 µM
TGI (HCC-2998 colon): 33.4 µM
GI50 (K-562 leukemia): 23 µM
TGI (K-562 leukemia): 56.9 µM
GI50 (SW-620 colon): 28.3 µM
TGI (SW-620 colon): 65.8 µM
GI50 (SF-295 CNS): 24.2 µM
TGI (SF-295 CNS): 86.7 µM
GI50 (MCF7 breast): 21.1 µM
TGI (MCF7 breast): 54.7 µM
GI50 (SK-MEL-28 melanoma): 42.6 µM
TGI (SK-MEL-28 melanoma): > 100 µM
GI50 (A498 renal): 26.1 µM
TGI (A498 renal): 68.7 µM
GI50 (MALME-3M melanoma): 8.7 µM
TGI (MALME-3M melanoma): 36.8 µM
GI50 (HOP-62 NSCLC): 65.7 µM
TGI (HOP-62 NSCLC): > 100 µM
GI50 (NCI-H522 lung): 16.2 µM
TGI (NCI-H522 lung): 38.2 µM
GI50 (UACC-62 melanoma): 26.9 µM
TGI (UACC-62 melanoma): > 100 µM
GI50 (DU-145 prostate): 18.7 µM
TGI (DU-145 prostate): 48.7 µM
GI50 (NCI/ADR-RES ovarian): 18.9 µM
TGI (NCI/ADR-RES ovarian): 83.3 µM
GI50 (U251 CNS): 21.3 µM
TGI (U251 CNS): 50.3 µM
GI50 (M14 melanoma): 17.6 µM
TGI (M14 melanoma): 34.3 µM
GI50 (IGROV1 ovarian): 16.3 µM
TGI (IGROV1 ovarian): 41.9 µM
GI50 (HCT-15 colon): 35.4 µM
TGI (HCT-15 colon): 97.9 µM
GI50 (786-0 renal): 18.3 µM
TGI (786-0 renal): > 100 µM
GI50 (SR leukemia): 18.7 µM
TGI (SR leukemia): 74.5 µM
GI50 (SF-268 CNS): 14.6 µM
TGI (SF-268 CNS): 45.3 µM
GI50 (UO-31 renal): 12 µM
TGI (UO-31 renal): 28.7 µM
GI50 (TK-10 renal): 43.1 µM
TGI (TK-10 renal): > 100 µM
GI50 (SK-OV-3 ovarian): 60.8 µM
TGI (SK-OV-3 ovarian): > 100 µM
GI50 (A549 NSCLC): 41.3 µM
TGI (A549 NSCLC): > 100 µM
GI50 (PC-3 prostate): 25.4 µM
TGI (PC-3 prostate): > 100 µM
GI50 (KM12 colon): 21.9 µM
TGI (KM12 colon): 71.8 µM
GI50 (SK-MEL-2 melanoma): 23.9 µM
TGI (SK-MEL-2 melanoma): 54 µM
GI50 (HOP-92 NSCLC): 87.4 µM
TGI (HOP-92 NSCLC): > 100 µM
GI50 (OVCAR-5 ovarian): 54.1 µM
TGI (OVCAR-5 ovarian): > 100 µM
GI50 (EKVX NSCLC): 37.1 µM
TGI (EKVX NSCLC): > 100 µM
